One experiment deals with human CB2 receptors (Homo sapiens (Human), UniProt P34972). Kind of experiment: functional cAMP assay, CB2. It is filed as cell-based. Particulars: functional cAMP assay, CHO cells expressing human CB2; read-out: human CB2 EC50. On the procedure:
(§1) CHO cells expressing human CB1 or CB2 receptors are seeded 17-24 hours prior to the experiment 50.000 cells per well in a black 96 well plate with flat clear bottom (Corning Costar #3904) in DMEM (Invitrogen No. 31331), 1×HT supplement, with 10% fetal calf serum and incubated at 5% CO2 and 37° C. in a humidified incubator. The growth medium was exchanged with Krebs Ringer Bicarbonate buffer with 1 mM IBMX and incubated at 30° C. for 30 min. Compounds were added to a final assay volume of 100 μl and incubated for 30 min at 30° C. Using the cAMP-Nano-TRF detection kit the assay (Roche Diagnostics) was stopped by the addition of 50 μl lysis reagent (Tris, NaCl, 1.5% Triton X100, 2.5% NP40, 10% NaN3) and 50 μl detection solutions (20 μM mAb Alexa700-cAMP 1:1, and 48 μM Ruthenium-2-AHA-cAMP) and shaken for 2 h at room temperature. The time-resolved energy transfer is measured by a TRF reader (Evotec Technologies GmbH), equipped with a ND:YAG laser as excitation source. The plate is measured twice with the excitation at 355 nm and at the emission with a delay of 100 ns and a gate of 100 ns, total exposure time 10s at 730 (bandwidth 30 nm) or 645 nm (bandwidth 75 nm), respectively. The FRET signal is calculated as follows: FRET=T730-Alexa730-P(T645-B645) with P=Ru730-B730/Ru645-B645, where T730 is the test well measured at […], T645 is the test well measured at 645 nm, B730 and B645 are the buffer controls at 730 nm and 645 nm, respectively. cAMP content is determined from the function of a standard curve spanning from 10 μM to 0.13 nM cAMP.
(§2) EC50 values were determined using Activity Base analysis (ID Business Solution, Limited). The EC50 values for a wide range of cannabinoid agonists generated from this assay were in agreement with the values published in the scientific literature.
Background: cAMP levels reflect the balance of adenylyl cyclase and phosphodiesterase activity.

The target of the next experiment is human CB1 receptors (Homo sapiens (Human), UniProt P21554). Kind of experiment: functional cAMP assay, CB1. It is filed as cell-based. Particulars: functional cAMP assay, CHO cells expressing human CB1; read-out: human CB1 EC50. On the procedure:
as §1, §2

Where only a bound is given, the exact number is not on record here.

The EC50 is the concentration giving half of the maximal effect.

Sequence of human CB1 receptors (P21554 whole entry): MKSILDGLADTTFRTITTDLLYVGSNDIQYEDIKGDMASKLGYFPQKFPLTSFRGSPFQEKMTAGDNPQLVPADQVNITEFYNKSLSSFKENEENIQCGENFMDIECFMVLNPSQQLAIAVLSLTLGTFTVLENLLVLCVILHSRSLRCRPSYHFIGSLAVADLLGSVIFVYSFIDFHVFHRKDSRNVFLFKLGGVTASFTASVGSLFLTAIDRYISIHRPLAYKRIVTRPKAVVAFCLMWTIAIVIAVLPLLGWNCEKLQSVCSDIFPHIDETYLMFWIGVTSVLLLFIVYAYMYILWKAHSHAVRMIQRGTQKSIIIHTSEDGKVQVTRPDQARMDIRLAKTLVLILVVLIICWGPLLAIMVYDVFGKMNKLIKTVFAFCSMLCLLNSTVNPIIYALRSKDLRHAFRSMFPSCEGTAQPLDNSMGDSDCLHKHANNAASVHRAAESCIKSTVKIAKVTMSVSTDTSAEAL
Sequence of human CB2 receptors (P34972 whole entry): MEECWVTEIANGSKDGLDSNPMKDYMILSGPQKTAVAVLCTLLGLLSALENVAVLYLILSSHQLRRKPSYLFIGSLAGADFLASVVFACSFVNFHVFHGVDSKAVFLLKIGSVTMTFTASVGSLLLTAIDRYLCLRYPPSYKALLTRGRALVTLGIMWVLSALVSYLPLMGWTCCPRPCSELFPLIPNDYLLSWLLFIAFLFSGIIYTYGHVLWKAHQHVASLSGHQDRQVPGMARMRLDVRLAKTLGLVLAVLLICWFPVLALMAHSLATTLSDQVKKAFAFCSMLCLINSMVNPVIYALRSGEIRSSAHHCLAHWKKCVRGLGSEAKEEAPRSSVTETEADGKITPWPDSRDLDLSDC

Consider `CC(C)(NC(=O)c1cnc(C2CC2)c(-c2cccc(Cl)c2)n1)c1nccs1` [Example 6, 6-(3-Chloro-phenyl)-5-cyclopropyl-pyrazine-2-carboxylic acid (1-methyl-1-thiazol-2-yl-ethyl)-amide], for which the EC50 is 0.048 µM at human CB2 receptors and 0.892 µM on human CB1 receptors.

In the case of `O=C(NN1CCCCC1)c1cnc(C2CC2)c(-c2cccc(Cl)c2)n1` [Example 7, 6-(3-Chloro-phenyl)-5-cyclopropyl-pyrazine-2-carboxylic acid piperidin-1-ylamide], the EC50 at human CB2 receptors is 0.255 µM; at human CB1 receptors, above 10 µM.

Turning to `CNC(=O)[C@@H](NC(=O)c1cnc(N2CC(F)(F)C2)c(OCC2CC2)n1)C(C)(C)C` [Example 8, 6-Cyclopropylmethoxy-5-(3,3-difluoro-azetidin-1-yl)-pyrazine-2-carboxylic acid ((S)-2,2-dimethyl-1-methylcarbamoyl-propyl)-amide], the EC50 at human CB2 receptors was 0.0185 µM; at human CB1 receptors it was above 10 µM.

As for `Cc1nc(C2(NC(=O)c3cnc(N4CC(F)(F)C4)c(OCC4CC4)n3)CCC2)no1` [Example 9, 6-Cyclopropylmethoxy-5-(3,3-difluoro-azetidin-1-yl)-pyrazine-2-carboxylic acid [1-(5-methyl-[1,2,4]oxadiazol-3-yl)-cyclobutyl]-amide], the half-maximal effective concentration (EC50) at human CB2 receptors worked out at 0.0879 µM; at human CB1 receptors, 1.29 µM.

On to `CC(C)(CCO)NC(=O)c1cnc(C2CC2)c(OCC2CC2)n1` [Example 10, 5-Cyclopropyl-6-cyclopropylmethoxy-pyrazine-2-carboxylic acid (3-hydroxy-1,1-dimethyl-propyl)-amide], for which the EC50 was 0.257 µM at human CB2 receptors and above 10 µM at human CB1 receptors.

For the compound `O=C(NC1(CO)CCC1)c1cnc(C2CC2)c(OCC2CC2)n1` [Example 11, 5-Cyclopropyl-6-cyclopropylmethoxy-pyrazine-2-carboxylic acid (1-hydroxymethyl-cyclobutyl)-amide], the EC50 at human CB2 receptors was 0.124 µM; on human CB1 receptors it was 3.32 µM.

For the compound `Cc1nc(C2(NC(=O)c3cnc(C4CC4)c(OCC4CC4)n3)CCC2)no1` [Example 12, 5-Cyclopropyl-6-cyclopropylmethoxy-pyrazine-2-carboxylic acid [1-(5-methyl-[1,2,4]oxadiazol-3-yl)-cyclobutyl]-amide], the EC50 is 0.0852 µM on human CB2 receptors and above 10 µM at human CB1 receptors.

For the compound `CCC(C)(CO)NC(=O)c1cnc(C2CC2)c(OCC2CC2)n1` (centres unmarked) [Example 13, 5-Cyclopropyl-6-cyclopropylmethoxy-pyrazine-2-carboxylic acid (1-hydroxymethyl-1-methyl-propyl)-amide], the half-maximal effective concentration (EC50) at human CB2 receptors was 0.0634 µM; at human CB1 receptors, above 10 µM.

With `CNC(=O)[C@@H](NC(=O)c1cnc(C2CC2)c(OCC2CC2)n1)C(C)(C)C` [Example 14, 5-Cyclopropyl-6-cyclopropylmethoxy-pyrazine-2-carboxylic acid ((S)-2,2-dimethyl-1-methylcarbamoyl-propyl)-amide], the EC50 at human CB2 receptors stood at 0.0068 µM; on human CB1 receptors, 0.155 µM.

Turning to `NC(=O)[C@@H](NC(=O)c1cnc(C2CC2)c(OCC2CC2)n1)c1ccccc1` [Example 15, 5-Cyclopropyl-6-cyclopropylmethoxy-pyrazine-2-carboxylic acid ((S)-carbamoyl-phenyl-methyl)-amide], the concentration for a half-maximal effect (EC50) on human CB2 receptors was 0.141 µM; at human CB1 receptors, above 10 µM.

With `CC(C)(O)[C@H](CC1CC1)NC(=O)c1cnc(N2CC(F)(F)C2)c(OCC2CC2)n1` [Example 16, 6-Cyclopropylmethoxy-5-(3,3-difluoro-azetidin-1-yl)-pyrazine-2-carboxylic acid ((S)-1-cyclopropylmethyl-2-hydroxy-2-methyl-propyl)-amide], the EC50 at human CB2 receptors is 0.0369 µM; on human CB1 receptors, above 10 µM.

As for `CC(C)(C)C(CO)NC(=O)c1cnc(C2CC2)c(OCC2CC2)n1` (centres unmarked) [Example 19, 5-Cyclopropyl-6-cyclopropylmethoxy-pyrazine-2-carboxylic acid (1-hydroxymethyl-2,2-dimethyl-propyl)-amide], the figures for the EC50 at human CB2 receptors and on human CB1 receptors were 0.0535 µM and above 10 µM, respectively.

Consider `Cc1nc([C@H](CC2CC2)NC(=O)c2cnc(N3CC(F)(F)C3)c(OCC3CC3)n2)no1` [Example 20, 6-Cyclopropylmethoxy-5-(3,3-difluoro-azetidin-1-yl)-pyrazine-2-carboxylic acid [(S)-2-cyclopropyl-1-(5-methyl-[1,2,4]oxadiazol-3-yl)-ethyl]-amide], for which the EC50 was 0.0284 µM on human CB2 receptors and above 10 µM on human CB1 receptors.

On to `O=C(NC(CO)C1CC1)c1cnc(N2CC(F)(F)C2)c(OCC2CC2)n1` (centres unmarked) [Example 21, 6-Cyclopropylmethoxy-5-(3,3-difluoro-azetidin-1-yl)-pyrazine-2-carboxylic acid (1-cyclopropyl-2-hydroxy-ethyl)-amide], for which the EC50 on human CB2 receptors is 0.0613 µM; at human CB1 receptors, above 10 µM.

Regarding `NC(=O)[C@@H](NC(=O)c1cnc(N2CC(F)(F)C2)c(OCC2CC2)n1)c1ccccc1` [Example 22, 6-Cyclopropylmethoxy-5-(3,3-difluoro-azetidin-1-yl)-pyrazine-2-carboxylic acid ((S)-carbamoyl-phenyl-methyl)-amide], the EC50 at human CB2 receptors is 0.093 µM; at human CB1 receptors, above 10 µM.

Take `COC(=O)[C@@H](NC(=O)c1cnc(C2CC2)c(OCC2CC2)n1)C(C)(C)C` [Example 23, (S)-2-[(5-Cyclopropyl-6-cyclopropylmethoxy-pyrazine-2-carbonyl)-amino]-3,3-dimethyl-butyric acid methyl ester]: the EC50 on human CB2 receptors was 0.0017 µM; on human CB1 receptors, 0.157 µM.

Take `CNC(=O)[C@H](CC1CC1)NC(=O)c1cnc(C2CC2)c(OCC2CC2)n1` [Example 24, 5-Cyclopropyl-6-cyclopropylmethoxy-pyrazine-2-carboxylic acid ((S)-2-cyclopropyl-1-methylcarbamoyl-ethyl)-amide]: the results for the EC50 on human CB2 receptors and at human CB1 receptors were 0.199 µM and above 10 µM, respectively.

As to `CN(C)C(=O)[C@H](CC1CC1)NC(=O)c1cnc(C2CC2)c(OCC2CC2)n1` [Example 25, 5-Cyclopropyl-6-cyclopropylmethoxy-pyrazine-2-carboxylic acid ((S)-2-cyclopropyl-1-dimethylcarbamoyl-ethyl)-amide], the EC50 on human CB2 receptors is 0.0146 µM; at human CB1 receptors, above 10 µM.

On to `CNC(=O)[C@H](CC(C)C)NC(=O)c1cnc(C2CC2)c(OCC2CC2)n1` [Example 26, 5-Cyclopropyl-6-cyclopropylmethoxy-pyrazine-2-carboxylic acid ((S)-3-methyl-1-methylcarbamoyl-butyl)-amide], for which the EC50 on human CB2 receptors is 0.0135 µM; on human CB1 receptors, above 10 µM.

Turning to `CC(C)C[C@H](NC(=O)c1cnc(C2CC2)c(OCC2CC2)n1)C(=O)N(C)C` [Example 27, 5-Cyclopropyl-6-cyclopropylmethoxy-pyrazine-2-carboxylic acid ((S)-1-dimethylcarbamoyl-3-methyl-butyl)-amide], the results for the EC50 at human CB2 receptors and on human CB1 receptors were 0.0027 µM and above 10 µM, respectively.

For `NC(=O)[C@H](CC1CC1)NC(=O)c1cnc(C2CC2)c(OCC2CC2)n1` [Example 28, 5-Cyclopropyl-6-cyclopropylmethoxy-pyrazine-2-carboxylic acid ((S)-1-carbamoyl-2-cyclopropyl-ethyl)-amide], the EC50 on human CB2 receptors was 0.0435 µM; on human CB1 receptors, above 10 µM.

As for `CC(C)C[C@H](NC(=O)c1cnc(C2CC2)c(OCC2CC2)n1)C(N)=O` [Example 29, 5-Cyclopropyl-6-cyclopropylmethoxy-pyrazine-2-carboxylic acid ((S)-1-carbamoyl-3-methyl-butyl)-amide], the EC50 on human CB2 receptors was 0.0041 µM; on human CB1 receptors, 1.57 µM.

With `CCC(CC)(NC(=O)c1cnc(C2CC2)c(OCC2CC2)n1)C(=O)OC` [Example 30, 2-[(5-Cyclopropyl-6-cyclopropylmethoxy-pyrazine-2-carbonyl)-amino]-2-ethyl-butyric acid methyl ester], the figures for the concentration giving a half-maximal response (EC50) at human CB2 receptors and on human CB1 receptors were 0.0014 µM and 0.255 µM, respectively.

In the case of `CNC(=O)[C@H](CC1CC1)NC(=O)c1cnc(N2CC(F)(F)C2)c(OCC2CC2)n1` [Example 31, 6-Cyclopropylmethoxy-5-(3,3-difluoro-azetidin-1-yl)-pyrazine-2-carboxylic acid ((S)-2-cyclopropyl-1-methylcarbamoyl-ethyl)-amide], the EC50 at human CB2 receptors was 0.124 µM; on human CB1 receptors it was above 10 µM.

With `CN(C)C(=O)[C@H](CC1CC1)NC(=O)c1cnc(N2CC(F)(F)C2)c(OCC2CC2)n1` [Example 32, 6-Cyclopropylmethoxy-5-(3,3-difluoro-azetidin-1-yl)-pyrazine-2-carboxylic acid ((S)-2-cyclopropyl-1-dimethylcarbamoyl-ethyl)-amide], the EC50 was 0.0596 µM at human CB2 receptors and above 10 µM on human CB1 receptors.

For the origin of these results see US9403808B2, “Pyrazine derivatives” (Hoffmann-La Roche Inc., priority 2011, dated 2016).
